Results on 4 molecules are retold here after patent EP4810052A2, “HCRHR2 SELECTIVE POLYPEPTIDES” (Gubra A/S, priority 2023, dated 2026).

Where two headings read alike, the source gives them in different places. Starred links: 1 amine or outer side, 2 acyl side, 3 side chain; linkers in the order of their positions; H or OH if unused. Non-standard residues stand in square brackets, D forms with d. Residues, ends and D or L forms follow the SMILES beside them. Groups on a side chain read outwards from the residue. *: point of attachment. C20 diacid = O=C(O)CCCCCCCCCCCCCCCCCCC(=O)*; γGlu = O=C(O)[C@H](CCC(=O)[*:2])N[*:1]; NMeI = CC[C@H](C)[C@H](NC)C(=O)O; Nle = CCCC[C@H](N)C(=O)O; AEEA = NCCOCCOCC(=O)O; Aib = CC(C)(N)C(=O)O

One experiment concerns the target T1, hCRHR2 (Homo sapiens, UniProt Q13324).
T1 sequence (Q13324 1-411): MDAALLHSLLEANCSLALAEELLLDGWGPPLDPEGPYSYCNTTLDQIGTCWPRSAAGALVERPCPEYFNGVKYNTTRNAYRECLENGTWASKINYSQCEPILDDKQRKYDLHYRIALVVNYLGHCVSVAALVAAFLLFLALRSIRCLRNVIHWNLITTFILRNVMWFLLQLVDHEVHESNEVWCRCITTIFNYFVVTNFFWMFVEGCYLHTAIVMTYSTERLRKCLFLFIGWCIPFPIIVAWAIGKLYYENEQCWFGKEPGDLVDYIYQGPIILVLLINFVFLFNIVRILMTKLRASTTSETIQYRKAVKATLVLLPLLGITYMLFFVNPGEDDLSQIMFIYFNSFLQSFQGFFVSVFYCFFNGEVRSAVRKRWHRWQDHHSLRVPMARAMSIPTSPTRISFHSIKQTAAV
The experiment in a line: HTRF cAMP assay, determination of hCRHR2 potency (peptide libraries 5 conc., purified peptides 11 conc.). The experiment is classed as cell-based. As to conditions: read-out: hCRHR2 pEC50 (converted). In outline:
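Potency was read as cAMP accumulation in a stable CHO-K1 line expressing human CRHR2, used in suspension right after thawing. Detection relied on energy transfer from antibody-bound cryptate to d2-cAMP.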
For orientation: Time-resolved FRET reads energy transfer from a long-lived donor to a nearby acceptor.

The next experiment has as its target T2, hCRHR1 (Homo sapiens, UniProt P34998).
T2 sequence (P34998 24-415): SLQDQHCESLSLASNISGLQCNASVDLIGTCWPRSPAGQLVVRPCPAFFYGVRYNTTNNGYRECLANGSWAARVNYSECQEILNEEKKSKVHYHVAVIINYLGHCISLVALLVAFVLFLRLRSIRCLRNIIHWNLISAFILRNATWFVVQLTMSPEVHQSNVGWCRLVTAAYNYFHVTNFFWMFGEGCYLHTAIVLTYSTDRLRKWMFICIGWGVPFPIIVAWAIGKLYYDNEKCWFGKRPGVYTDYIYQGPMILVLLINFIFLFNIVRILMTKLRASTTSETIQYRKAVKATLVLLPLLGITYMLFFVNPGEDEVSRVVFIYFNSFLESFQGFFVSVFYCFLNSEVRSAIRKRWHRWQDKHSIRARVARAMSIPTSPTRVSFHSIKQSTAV
Kind of experiment: HTRF cAMP assay, determination of hCRHR1 potency (peptide libraries 5 conc., purified peptides 11 conc.). As to conditions: read-out: hCRHR1 pEC50 (converted). The experiment is classed as cell-based. In outline: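 CHO-K1 cells stably expressing human CRHR1, thawed from frozen stocks just before use, were stimulated in suspension with agonist peptides. cAMP was measured by HTRF competitive immunoassay (cryptate anti-cAMP antibody vs d2-cAMP).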

Setting [1] is: Table 3, matched molecular pairs X^38 L vs Nle, peptide library of Example 4.
The mark [2] stands for this setting: Table 4, library peptides having X^38 = Nle.

`CCCC[C@H](NC(=O)[C@@H](NC(=O)[C@H](CCC(=O)O)NC(=O)[C@H](C)NC(=O)[C@H](CC(N)=O)NC(=O)[C@@H](NC(=O)[C@H](CCCCNC(=O)COCCOCCNC(=O)COCCOCCNC(=O)CC[C@H](NC(=O)CC[C@H](NC(=O)CCCCCCCCCCCCCCCCCCC(=O)O)C(=O)O)C(=O)O)NC(=O)[C@H](C)NC(=O)[C@H](CCC(=O)O)NC(=O)[C@H](CCC(N)=O)NC(=O)[C@H](CCCNC(=N)N)NC(=O)[C@H](CC(C)C)NC(=O)[C@H](C)NC(=O)[C@H](CCCNC(=N)N)NC(=O)[C@H](C)NC(=O)[C@H](CCCNC(=N)N)NC(=O)[C@H](C)NC(=O)[C@H](CCC(N)=O)NC(=O)[C@H](CCC(=O)O)NC(=O)[C@H](CC(C)C)NC(=O)[C@H](CC(C)C)NC(=O)[C@@H](NC(=O)[C@H](CCC(N)=O)NC(=O)[C@H](CC(C)C)NC(=O)[C@H](CC(C)C)NC(=O)CNC(=O)[C@@H](NC(=O)[C@@H]1CCCN1C(=O)[C@@H](NC(=O)[C@H](CC(=O)O)NC(=O)[C@H](CC(C)C)NC(=O)[C@H](CO)NC(=O)[C@H](CC(C)C)NC(=O)[C@@H](NC(=O)[C@@H](N)[C@@H](C)CC)C(C)C)C(C)C)[C@@H](C)CC)[C@@H](C)CC)[C@@H](C)O)[C@@H](C)CC)C(=O)N[C@@H](C)C(=O)N[C@@H](CCC(=O)O)C(=O)N[C@H](C(N)=O)C(C)C` [SEQ ID NO: 38] (H-IVLSLDVPIGLLQILLEQARARALRQEAK([AEEA-AEEA-γGlu-γGlu-C20 diacid])TNAEI[Nle]AEV-NH2): the EC50 at hCRHR2 (setting [1]) was 0.398 nM; at hCRHR1 (setting [1]), 63100 nM.
On the same counts, the results for `CC[C@H](C)[C@H](N)C(=O)N[C@H](C(=O)N[C@@H](CC(C)C)C(=O)N[C@@H](CO)C(=O)N[C@@H](CC(C)C)C(=O)N[C@@H](CC(=O)O)C(=O)N[C@H](C(=O)N1CCC[C@H]1C(=O)N[C@H](C(=O)NCC(=O)N[C@@H](CC(C)C)C(=O)N[C@@H](CC(C)C)C(=O)N[C@@H](CCC(N)=O)C(=O)N[C@H](C(=O)N[C@@H](CC(C)C)C(=O)N[C@@H](CC(C)C)C(=O)N[C@@H](CCC(=O)O)C(=O)N[C@@H](CCC(N)=O)C(=O)N[C@@H](C)C(=O)N[C@@H](CCCNC(=N)N)C(=O)N[C@@H](C)C(=O)N[C@@H](CCC(=O)O)C(=O)N[C@@H](C)C(=O)N[C@@H](C)C(=O)N[C@@H](CCCNC(=N)N)C(=O)N[C@@H](CCC(=O)O)C(=O)N[C@@H](CCC(N)=O)C(=O)N[C@@H](C)C(=O)N[C@@H](CCCCNC(=O)COCCOCCNC(=O)COCCOCCNC(=O)CC[C@H](NC(=O)CC[C@H](NC(=O)CCCCCCCCCCCCCCCCCCC(=O)O)C(=O)O)C(=O)O)C(=O)N[C@H](C(=O)N[C@@H](CC(N)=O)C(=O)N[C@@H](C)C(=O)N[C@@H](CCC(=O)O)C(=O)N[C@H](C(=O)N[C@@H](CC(C)C)C(=O)N[C@@H](C)C(=O)N[C@@H](CCC(=O)O)C(=O)N[C@H](C(N)=O)[C@@H](C)CC)[C@@H](C)CC)[C@@H](C)O)[C@@H](C)CC)[C@@H](C)CC)C(C)C)C(C)C` [SEQ ID NO: 23] (H-IVLSLDVPIGLLQILLEQARAEAAREQAK([AEEA-AEEA-γGlu-γGlu-C20 diacid])TNAEILAEI-NH2) are 0.501 nM and 39800 nM.
As to `CCCC[C@H](NC(=O)[C@@H](NC(=O)[C@H](CCC(=O)O)NC(=O)C(C)(C)NC(=O)[C@H](CC(N)=O)NC(=O)[C@@H](NC(=O)[C@H](CCCCNC(=O)COCCOCCNC(=O)COCCOCCNC(=O)CC[C@H](NC(=O)CC[C@H](NC(=O)CCCCCCCCCCCCCCCCCCC(=O)O)C(=O)O)C(=O)O)NC(=O)[C@H](C)NC(=O)[C@H](CCC(N)=O)NC(=O)[C@H](CCC(=O)O)NC(=O)[C@H](CCCNC(=N)N)NC(=O)[C@H](C)NC(=O)[C@H](C)NC(=O)[C@H](CCCNC(=N)N)NC(=O)[C@H](C)NC(=O)[C@H](CCCNC(=N)N)NC(=O)[C@H](C)NC(=O)[C@H](CCC(N)=O)NC(=O)[C@H](CCC(N)=O)NC(=O)[C@H](CC(C)C)NC(=O)[C@H](CC(C)C)NC(=O)[C@@H](NC(=O)[C@H](CCC(N)=O)NC(=O)[C@H](CC(C)C)NC(=O)[C@H](CC(C)C)NC(=O)CNC(=O)[C@@H](NC(=O)[C@@H]1CCCN1C(=O)[C@@H](NC(=O)[C@H](CC(=O)O)NC(=O)[C@H](CC(C)C)NC(=O)[C@H](CO)NC(=O)[C@H](CC(C)C)NC(=O)[C@@H](NC(=O)[C@@H](NC)[C@@H](C)CC)C(C)C)C(C)C)[C@@H](C)CC)[C@@H](C)CC)[C@@H](C)O)[C@@H](C)CC)C(=O)N[C@@H](C)C(=O)N[C@@H](CCC(=O)O)C(=O)N[C@H](C(N)=O)C(C)C` [compound 202] (H-[NMeI]VLSLDVPIGLLQILLQQARARAAREQAK([AEEA-AEEA-γGlu-γGlu-C20 diacid])TN[Aib]EI[Nle]AEV-NH2), the results for the EC50 at hCRHR2 (setting [2]) and at hCRHR1 (setting [2]) were 0.0251 nM and 794 nM, respectively.
Regarding `CC[C@H](C)[C@H](N)C(=O)N[C@H](C(=O)N[C@@H](CC(C)C)C(=O)N[C@@H](CO)C(=O)N[C@@H](CC(C)C)C(=O)N[C@@H](CC(=O)O)C(=O)N[C@H](C(=O)N1CCC[C@H]1C(=O)N[C@H](C(=O)NCC(=O)N[C@@H](CC(C)C)C(=O)N[C@@H](CC(C)C)C(=O)N[C@@H](CCC(N)=O)C(=O)N[C@H](C(=O)N[C@@H](CC(C)C)C(=O)N[C@@H](CC(C)C)C(=O)N[C@@H](CCC(=O)O)C(=O)N[C@@H](CCC(N)=O)C(=O)N[C@@H](C)C(=O)N[C@@H](CCCNC(=N)N)C(=O)N[C@@H](C)C(=O)N[C@@H](CCCNC(=N)N)C(=O)N[C@@H](CCC(N)=O)C(=O)N[C@@H](C)C(=O)N[C@@H](CCCNC(=N)N)C(=O)N[C@@H](CCC(=O)O)C(=O)N[C@@H](CCC(N)=O)C(=O)N[C@@H](C)C(=O)N[C@@H](CCCCNC(=O)COCCOCCNC(=O)COCCOCCNC(=O)CC[C@H](NC(=O)CC[C@H](NC(=O)CCCCCCCCCCCCCCCCCCC(=O)O)C(=O)O)C(=O)O)C(=O)N[C@H](C(=O)N[C@@H](CC(N)=O)C(=O)N[C@@H](C)C(=O)N[C@@H](CCC(=O)O)C(=O)N[C@H](C(=O)N[C@@H](CC(C)C)C(=O)N[C@@H](C)C(=O)N[C@@H](CCC(=O)O)C(=O)N[C@H](C(N)=O)[C@@H](C)CC)[C@@H](C)CC)[C@@H](C)O)[C@@H](C)CC)[C@@H](C)CC)C(C)C)C(C)C` [SEQ ID NO: 29] (H-IVLSLDVPIGLLQILLEQARARQAREQAK([AEEA-AEEA-γGlu-γGlu-C20 diacid])TNAEILAEI-NH2), the results for the EC50 on hCRHR2 (setting [1]) and at hCRHR1 (setting [1]) were 0.251 nM and 39800 nM, respectively.
